These are literature values, as cited in US20040086873A1, “System and method of generating and storing correlated hyperquantified tissue structure and biomolecular expression datasets” (priority 2002, published 2004).

The conditions of the data set: 1000 mg/kg/day, intraperitoneal injection once a day, dissolved in corn oil (~15% v/v).

`ClC(Cl)(Cl)Cl` [CC14]: the “toxicity of the dose level (hepatotoxic / lethal)” value is given as “hepatotoxic but not lethal”.
